Laboratory results from patent US11981944B2, “Immunogenic arginase peptides” (IO Biotech ApS, priority 2016, dated 2024).

How the values were obtained:
[1] = system: peripheral blood mononuclear cells (PBMC); test: IFN-gamma ELISPOT secretion assay on PBMC (Example 1); format: cell-based, human; details: PBMC from three cancer patients; FIG. 3
[2] = system: PBMCs from healthy donors or cancer patients; test: IFNγ ELISPOT on PBMCs after one week peptide and IL-2 stimulation (Example 2); format: cell-based, human; details: for spontaneous IFNγ ELISPOT responses against 20-mer library peptides: cancer (melanoma) patient PBMCs, FIG. 9A
Experimental: PBMCs from healthy donors or cancer patients were stimulated with 80 μg of arginase-derived peptides and 120 U/ml IL-2 (Peprotech, London, UK, cat. 200-02) for a week. 4-6×10^5 PBMCs were then placed in the bottom of ELISPOT plate (nitrocellulose bottomed 96-well plates by MultiScreen MAIP […]; Millipore, cat. MSIPN4W50) pre-coated with IFN-y capture Ab (Mabtech, cat. 3420-3-1000) and 1-10 μg of arginase derived peptides were added. PBMCs from each patient and donors were set up in duplicates or triplicates for peptide and control stimulations. Cells were incubated in ELISPOT plates in the presence of an antigen for 14-16 hours after which they are washed off and secondary biotinylated Ab (Mabtech, cat. 3420-6-1000) was added. After 2 h incubation unbound secondary antibody was washed off and streptavidin conjugated alkaline phosphatase (AP) (Mabtech, cat. 3310-10) was added for 1 h. Next, unbound conjugated enzyme is washed off and the assay is developed by adding BCIP/NBT substrate (Mabtech, cat. 3650-10). Developed ELISPOT plates were analysed on CTL ImmunoSpot S6 Ultimate-V analyzer using Immunospot software v5.1. Responses were calculated as the difference between average numbers of spots in wells stimulated with Arginase-1 peptides and control wells. We divided the entire arginase-1 protein sequence into overlapping 20-amino-acid-long peptides, generating a library of 31 peptides covering the whole sequence (SEQ ID NOs 18-48)). Each peptide in the library overlapped with the first 10 amino acids of the following peptide. Using this arginase peptide library and the IFNγ ELISPOT assay, we next screened PBMCs from melanoma patients and healthy donors for spontaneous responses (FIGS. 9A and 9B). The PBMCs were stimulated for one week with a pool of 3-4 adjacent 20-mer arginase library peptides and low-dose IL-2 (120 U/mL). They were then set up for an IFNγ ELISPOT assay to screen for responses against each 20-mer peptide separately. […] Among these overlapping peptides, […]-200), and Arg(191-210) spanned a 50-amino-acid-long region that was deemed a hot-spot region since nearly all patients harbored a response against one or more of these peptides (FIG. 9A). The selected eight peptides were further used to screen for spontaneous immune responses against arginase-1 in PBMCs from eight healthy donors using IFNγ ELISPOT. […] Since we most frequently observed responses against arginase-1 peptides from the hot-spot region, we next analyzed whether longer peptides covering the same sequence could be used instead of four 20-mers. […] We then divided the arginase-1 hot-spot region into two 30-mer peptides that overlapped by 10 amino acids (peptides labelled by reference to start and end position): […]-190) and […]-210). These 30-mer peptides were used to check for responses in selected PBMCs from cancer patients and healthy donors, which had previously shown responses against the 20-mer hot-spot peptides. The PBMCs were stimulated for one week with either […]-190) or […]-210) in the presence of IL-2, and were then used in IFNγ ELISPOT.

[3] = system: TILs from eight melanoma patients; test: Intracellular staining for IFNγ and TNFα release in melanoma TILs; format: cell-based, human; details: for IFNγ or TNFα release from CD8+ T cells: TILs; for IFNγ or TNFα release from CD8+ T cells / IFNγ release from CD4+ T cells: 5 h peptide stimulation; for IFNγ release from CD4+ T cells: one of the TIL cultures, FIG. 10A
Experimental: Flow cytometry analysis was performed on a FACSCantoTM II (BD Biosciences, San Jose CA, USA). Intracellular staining of cell cultures was performed after the cells were stimulated with 20-mere peptides for 5 hours or 30-mere peptides for 8h (BD GolgiPlugTM cat. 555029, was added after the first hour). The cells were then stained for surface markers, then washed and permeabilized by using Fixation/Permeabilization and Permeabilization Buffer (eBioscience, cat. 00-5123-43), according to manufacturer's instructions. Antibodies used: IFNγ-APC (cat. 341117), TNFα-BV421 (cat. 562783), CD4-FITC (cat. 347413), CD8-PerCP (cat. 345774) (all from BD Biosciences). Dead cells were stained using FVS510 (564406, BD Biosciences) according to manufacturer's instructions. To investigate the potential presence of arginase-specific T cells among tumor-infiltrating lymphocytes in cancer, we screened TILs from eight melanoma patients for responses against arginase-1 derived peptides. To this end, we performed intracellular staining for IFNγ and TNFα release in response to peptide stimulation. TILs were thawed and rested overnight without IL-2, and then stimulated for 5 h with three hot-spot immunogenic region 20-mer peptides (peptides labelled by reference to start and end position): […]-200). […] The percentage of IFNγ-producing cells was higher for […]-190) and […]-200) compared to […]-180), and the response against […]-200) was almost twice that against […]-180).

[4] = system: C57BL/6 and Balb/c mice; test: Peptide vaccination of mice and IFNgamma ELISPOT of spleen or dLN cells; format: in vivo, mouse; details: 100 μg peptide s.c. day0 and day7
Experimental: Animals were vaccinated subcutaneously with 100 μg peptide in DMSO/H2O in a 1:1 emulsion with incomplete Freund's adjuvant (IFA) or montanide. IFA+DMSO/H2O served as a control vaccine. Vaccinations were carried out on day0 and day7. For subsequent analysis of the immune response to specific peptides, mice were sacrificed on day 14 and spleen and draining lymph nodes (dLNs) were harvested.
Murine immune cells were subjected to ELISPOT analysis. Single cell suspension was prepared from spleen or dLNs by passage through a cell strainer. After lysis of red blood cells, 0.9×10E6 cells/well were seeded into ELISPOT plates coated with anti-IFNgamma antibody. Peptide of interest was added to designated wells and cells were incubated o/n with peptide. The next day, cells were removed, plates washed and incubated with biotinylated detection antibody. Finally, after addition of Streptavidin-ALP and substrate visible spots appear. Each spot corresponds to an individual IFNgamma producing cell. Plates were analysed in an Immunospot analyser and plotted as spots/0.9×10E6 cells minus background (i.e. minus number of spots in corresponding unstimulated (no peptide) wells).

[5] = system: CT26.WT colon cancer cells; test: Tumor vaccination of Balb/c mice bearing CT26.WT tumors; format: in vivo, mouse; details: for tumor growth relative to vaccination with control peptide: vaccination day6 and day 13, FIG. 16
[6] = CD4+ T cells in TILs, 5 h stimulation

Sequence | immune responses against overlapping 20mer peptides [1] | spontaneous IFNγ ELISPOT responses against 20-mer library peptides [2] | immunogenicity (peptide specific IFNgamma ELISPOT response) ([4]; Balb/c mice, FIG. 15) | immunogenicity (peptide specific IFNgamma ELISPOT response) ([4]; C57BL/6 mice, FIG. 14) | also measured
AKDIVYIGLRDVDPGEHYIL (Peptide fragment of human Arginase 1) [Arg1-18, positions 171-190 of human Arginase 1] | Frequent immune responses were detected | highest and most abundant responses |  |  | percentage of IFNγ-producing cells compared to Arg(161-180) [3, 6]: higher; IFNγ or TNFα release from CD8+ T cells [3]: No IFNγ or TNFα release was observed; IFNγ release from CD4+ T cells [3]: IFNγ was released from CD4+ T cells
DVDPGEHYILKTLGIKYFSM (Peptide frgment of human Arginase 1) [Arg1-19, positions 181-200 of human Arginase 1] | Frequent immune responses were detected | highest and most abundant responses | immunogenic | immunogenic | percentage of IFNγ-producing cells compared to Arg(161-180) [3, 6]: higher; response relative to that against Arg(161-180) [3, 6]: almost twice that against Arg(161-180); IFNγ or TNFα release from CD8+ T cells [3]: No IFNγ or TNFα release was observed; IFNγ release from CD4+ T cells [3]: IFNγ was released from CD4+ T cells; size of the tumor growth effect among the tested peptides [5]: most noticeable; tumor growth relative to vaccination with control peptide [5]: inhibit tumor growth
DVDPGEHYILKTLGIKYFSMTEVDRLGIGK (Peptide fragment of human Arginase 1) [Arg(181-210), 30-mer, positions 181-210 of human Arginase 1] |  |  |  |  | IFNγ ELISPOT responses against longer hot-spot peptides ([2]; selected PBMCs from cancer patients and healthy donors, one week stimulation with IL-2, FIG. 10B, 10C): lower than those against the overlapping 20-mer peptides
GFSWVTPCISAKDIVYIGLR (Peptide fragment of human Arginase 1) [Arg1-17, positions 161-180 of human Arginase 1; murine region identical] | Frequent immune responses were detected | highest and most abundant responses | immunogenic | immunogenic | IFNγ or TNFα release from CD8+ T cells [3]: No IFNγ or TNFα release was observed; IFNγ release from CD4+ T cells [3]: IFNγ was released from CD4+ T cells; tumor growth relative to vaccination with control peptide [5]: inhibit tumor growth
GRKKRPIHLSFDVDGLDPSF (Peptide fragment of human Arginase 1) [Arg1-23, positions 221-240 of human Arginase 1] | Frequent immune responses were detected | highest and most abundant responses |  |  | 
HARVHPDLGVIWVDAHTDIN (Peptide fragment of human Arginase 1) [Arg1-12, positions 111-130 of human Arginase 1] | Frequent immune responses were detected | highest and most abundant responses |  |  | 
KDIVYIGL (Peptide fragment of human Arginase 1) [mARG1, positions 172-179 of human Arginase 1; murine region identical] |  |  |  | immunogenic | 
KTLGIKYFSMTEVDKLGIGK (Peptide fragment of murine Arginase 1) [mARG20, positions 191-210 of murine Arginase 1] |  |  | immunogenic | immunogenic | size of the tumor growth effect among the tested peptides [5]: most noticeable; tumor growth relative to vaccination with control peptide [5]: inhibit tumor growth
KTLGIKYFSMTEVDRLGIGK (Peptide frgment of human Arginase 1) [Arg1-20, positions 191-210 of human Arginase 1] | Frequent immune responses were detected | highest and most abundant responses |  |  | 
LGIKYFSM (Peptide fragment of human Arginase 1) [mARG2, positions 193-200 of human Arginase 1; murine region identical] |  |  | not immunogenic | not immunogenic | 
LRKAGLLEKLKEQECDVKDY (Peptide fragment of human Arginase 1) [Arg1-4, positions 31-50 of human Arginase 1] | Frequent immune responses were detected | highest and most abundant responses |  |  | 
TEEIYKTGLLSGLDIMEVNP (Peptide fragment of human Arginase 1) [Arg1-27, positions 261-280 of human Arginase 1] | Frequent immune responses were detected | highest and most abundant responses |  |  | 
